Target: Mitogen-activated protein kinase 14 (Homo sapiens, UniProt Q16539)
Experiment: Enzyme Inhibition Assay

Sequence of Mitogen-activated protein kinase 14 (Q16539 whole entry): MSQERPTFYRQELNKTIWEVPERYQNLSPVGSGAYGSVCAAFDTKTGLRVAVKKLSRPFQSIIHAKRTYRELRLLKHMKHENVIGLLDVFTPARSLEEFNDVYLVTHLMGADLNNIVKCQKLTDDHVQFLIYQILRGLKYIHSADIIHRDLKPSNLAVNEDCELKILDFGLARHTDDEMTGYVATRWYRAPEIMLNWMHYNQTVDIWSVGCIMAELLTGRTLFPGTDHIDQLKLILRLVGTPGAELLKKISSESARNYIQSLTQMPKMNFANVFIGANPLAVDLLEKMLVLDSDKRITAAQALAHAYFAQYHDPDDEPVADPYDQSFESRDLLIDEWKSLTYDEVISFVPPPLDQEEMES

IC50: 70 nM
Structure (SMILES): CCn1c(=O)n(CC)c2cc(-c3[nH]c(C4CCNCC4)nc3-c3cccc(C)c3)ccc21 [1,3-diethyl-5-[4-(3-methylphenyl)-2-(piperidin-4-yl)-1H-imidazol-5-yl]-2,3-dihydro-1H-1,3-benzodiazol-2-one]
